Results taken from patent US4255444A, “4-Hydroxy-2-pyrone derivatives having antihyperlipaemic activity” (Sankyo Company Limited, priority 1978, dated 1981).

Target: cholesterol biosynthesis (crude enzyme extracted from rat liver)
Test: Inhibition of cholesterol biosynthesis by crude enzyme extracted from rat liver (radioactive acetic acid incorporation, digitonin precipitation)
Type: biochemical
Conditions: 37° C., 60 minutes, compound added at beginning of reaction
Experimental: Crude enzyme extracted from rat liver was reacted with radioactive acetic acid at 37° C. for 60 minutes. The radioactive cholesterol thus biosynthesized was saponified and precipitated with digitonin, and the radioactivity was measured to determine the amount of cholesterol produced. The reaction was repeated, but adding one of the compounds of the invention listed in the following Table at the beginning of the reaction, and the amount of cholesterol biosynthesized was again determined, to give a quantitative measurement of the inhibitory effect of the compounds of the invention. The concentrations (μg/ml) of the compounds of the invention and of a known compound (clofibrate) which gave approximately 50% inhibition of cholesterol biosynthesis are reported in the following Table as I50 values [see Bricker et al, The Journal of Biological Chemistry, 247, 4914 (1972)]. The compounds of the invention are identified in the following Table by the numbers heretofore assigned to them.

Row | I50 (concentration giving approximately 50% inhibition of cholesterol biosynthesis) [µg/mL] | SMILES
1 | 0.75 | Cc1ccc2ccccc2c1CCC1CC(O)CC(=O)O1 (centres unmarked) [Compound No. 1, 4-Hydroxy-6-[2-(2-methyl-1-naphthyl)ethyl]-3,4,5,6-tetrahydro-2H-pyran-2-one]
2 | 6.4 | O=C1CC(O)CC(CCc2cccc3ccccc23)O1 (centres unmarked) [Compound No. 3, 4-Hydroxy-6-[2-(1-naphthyl)ethyl]-3,4,5,6-tetrahydro-2H-pyran-2-one]

The remaining lines, values behind:

Row | SMILES | I50 (concentration giving approximately 50% inhibition of cholesterol biosynthesis) [µg/mL]
3 | CCOC(=O)C(C)(C)Oc1ccc(Cl)cc1 [Clofibrate, reference compound] | 250 to 300
4 | CC(Oc1ccccc1)C1CC(O)CC(=O)O1 (centres unmarked) [Compound No. 2, 4-Hydroxy-6-(1-phenoxyethyl)-3,4,5,6-tetrahydro-2H-pyran-2-one] | 42.3
5 | CC(C)(Oc1ccc(Cl)cc1)C1CC(O)CC(=O)O1 (centres unmarked) [Compound No. 4, 6-[1-(4-Chlorophenoxy)-1-methylethyl]-4-hydroxy-3,4,5,6-tetrahydro-2H-pyran-2-one] | 21.3
